Test results taken from patent publication US20050106305A1, “Beverage compositions comprising monatin and methods of making same” (Cargill, Inc., priority 2003, published 2005).
Where two headings read alike, the source gives them in different places.

Key:
[1] = Sensory evaluation of soft drinks (lemon/lime, orangeade, cola); assay type: in vivo; conditions: Cola; aspartame 550 ppm, sucralose 220 ppm, R,R monatin 45 ppm
Method: Beverages (cola, lemon-lime and orange) were formulated and sweetened with aspartame, sucralose or R,R monatin. Qualitative evaluation was carried out.
The term “throw” refers to dilution in water. For example, a throw of “1+4” means 1 part concentrate formulation to 4 parts water. Thus, if a concentrate formulation includes 0.021% wt/vol (i.e., 210 ppm) of R,R monatin, for example, a throw of 1+4 makes a diluted beverage containing 42 ppm (210 ppm/5) R,R monatin.
Final ready-to-drink beverages (after throw) contained sweetener concentrations as follows:
Evaluation of these soft drinks was carried out by a panel (n=6) of assessors who evaluated each set of drinks on separate tasting occasions.

[2] = Sensory stability of monatin and aspartame at pH 2.5, 3.0, 4.0 at 40° C.; assay type: physicochemical; conditions: for Rate constant (k) of sweetness loss / half-life: pseudo-first order assumed; for SEV / Retention of Sweetness: stored 40° C., monatin ~55 ppm, aspartame 400 ppm; for half-life: phosphate/citrate buffer, read-out: Half-life (t½) of sweetness loss (converted)
Method: The sensory stability of monatin solutions prepared at pH 2.5, 3.0 and 4.0 and stored at 40° C. was monitored for 100 days. Loss of sweetness from these solutions was compared with the losses of sweetness from aspartame solutions prepared and stored under identical conditions.
The sensory stability of monatin (8% SEV, ˜55 ppm, synthetic blend containing approximately 96% of the 2R,4R/2S, 4S enantiometric pair and 4% of the 2R,4S/2S,4R enantiometric pair) in phosphate/citrate buffers having a pH of 2.5, 3.0, and 4.0 was examined after storage at 40° C. The stability of monatin was compared to that of aspartame (400 ppm) in the same buffers. Three sucrose reference solutions were prepared in the same phosphate/citrate buffers as the monatin and aspartame solutions. All prepared solutions were stored in the dark.
Buffer compositions: pH 2.5 Phosphoric acid (75% solution) 0.127% (w/v) Tri-sodium citrate monohydrate 0.005% (w/v) • pH 3.0 Phosphoric acid (75% solution) 0.092% (w/v) Tri-sodium citrate monohydrate 0.031% (w/v) • pH 4.0 Phosphoric acid (75% solution) 0.071% (w/v) Tri-sodium citrate monohydrate 0.047% (w/v)
The sweetness of each sweetener relative to sucrose was assessed in duplicate by a panel (n=8) of trained sensory evaluators experienced in the sweetness estimation procedure. All samples (in the same buffers) were served in duplicate at a temperature of 22° C.±1° C. Monatin (test) solutions, coded with 3 digit random number codes were presented individually to panelists, in random order. Sucrose reference standards, ranging from 4.0-10.0% (w/v) sucrose, increasing in steps of 0.5% (w/v) sucrose were also provided. Panelists were asked to estimate sweetness by comparing the sweetness of the test solution to the sucrose standards. This was carried out by taking 3 sips of the test solution, followed by a sip of water, followed by 3 sips of sucrose standard followed by a sip of water, etc. Panelists were encouraged to estimate the sweetness to one decimal place, e.g., 6.8, 8.5. A five minute rest period was imposed between evaluating the test solutions. Panelists were also asked to rinse well and eat a cracker to reduce any potential carry over effects.
If a pseudo-first order breakdown reaction is assumed, a plot of logn percentage retention versus time (logn%RTN v. t) allows estimation of the half-life (t½) and rate constant (k) of sweetness loss under any given set of conditions. In so doing, the kinetics of monatin and aspartame sweetness loss may be summarized as follows in Table 25.

[3] = Taste profiling of lemon/lime carbonates and colas; assay type: in vivo; conditions: HFCS 10%, aspartame 500 ppm, sucralose 200 ppm, blends 30.8 ppm/5.0%; for Average Score: score 1, poor-5, good, sucrose 10%
Method: Cola and lemon/lime beverages were prepared using the following formulations and sweetened with sucrose, HFCS (55% fructose), aspartame, sucralose, monatin (racemic mix described in Example 14), monatin/sucrose, or monatin/HFCS. One part of syrup was added to 5.5 parts carbonated water and evaluated.
Assessments were carried out ‘double blind’ by a panel of trained tasters. The sucrose-sweetened product was identified as the control and all other products randomly coded. Panelists were asked to assess the randomly coded sample relative to the control for the following attributes:
Panelists also were asked assign a score (1; poor-5; good) for the quality of the sweetener system. A summary of the comments generated together with the average score awarded is presented in Tables 12 and 13 for lemon/lime carbonates and colas, respectively. […] Blends of monatin/carbohydrate rated higher. In the cola, monatin was similar to aspartame.

[4] = cola, sucrose 10% (control), monatin 80 ppm
[5] = lemon/lime carbonate, sucrose 10% (control), monatin 67 ppm

## NC(CC(O)(Cc1c[nH]c2ccccc12)C(=O)O)C(=O)O (racemic) [Monatin, 2-hydroxy-2-(indol-3-ylmethyl)-4-aminoglutaric acid]
[1]
  Comments (sensory evaluation): Overall, judged quite similar qualitatively
[2]; after 100 days storage at pH 2.5 at 40° C.
  Sweetness Retained: 29%
[2]; after 100 days storage at pH 3.0 at 40° C.
  Sweetness Retained: 58%
[2]; after 100 days storage at pH 4.0 at 40° C.
  Sweetness Retained: 78%
[2]; pH 2.5, 40° C.
  Rate constant (k) of sweetness loss: 0.011 day⁻¹
  half-life: 65 days
[2]; pH 2.5 buffer, day 0
  SEV: 7.35 % sucrose
[2]; pH 2.5 buffer, day 1
  Retention of Sweetness: 93.3%
  SEV: 6.86 % sucrose
[2]; pH 2.5 buffer, day 2
  Retention of Sweetness: 91.2%
  SEV: 6.70 % sucrose
[2]; pH 2.5 buffer, day 3
  Retention of Sweetness: 88.4%
  SEV: 6.50 % sucrose
[2]; pH 2.5 buffer, day 4
  Retention of Sweetness: 85.2%
  SEV: 6.26 % sucrose
[2]; pH 2.5 buffer, day 7
  Retention of Sweetness: 82.7%
  SEV: 6.08 % sucrose
[2]; pH 2.5 buffer, day 8
  Retention of Sweetness: 81.4%
  SEV: 5.98 % sucrose
[2]; pH 2.5 buffer, day 9
  Retention of Sweetness: 80.1%
  SEV: 5.89 % sucrose
[2]; pH 2.5 buffer, day 11
  Retention of Sweetness: 78.6%
  SEV: 5.78 % sucrose
[2]; pH 2.5 buffer, day 50
  Retention of Sweetness: 62.7%
  SEV: 4.61 % sucrose
[2]; pH 2.5 buffer, day 100
  Retention of Sweetness: 28.6%
  SEV: 2.10 % sucrose
[2]; pH 3.0, 40° C.
  Rate constant (k) of sweetness loss: 0.006 day⁻¹
  half-life: 115 days
[2]; pH 3.0 buffer, day 0
  SEV: 7.08 % sucrose
[2]; pH 3.0 buffer, day 1
  Retention of Sweetness: 99.6%
  SEV: 7.05 % sucrose
[2]; pH 3.0 buffer, day 2
  Retention of Sweetness: 93.2%
  SEV: 6.60 % sucrose
[2]; pH 3.0 buffer, day 3
  Retention of Sweetness: 91.4%
  SEV: 6.47 % sucrose
[2]; pH 3.0 buffer, day 4
  Retention of Sweetness: 91.6%
  SEV: 6.49 % sucrose
[2]; pH 3.0 buffer, day 7
  Retention of Sweetness: 85.3%
  SEV: 6.04 % sucrose
[2]; pH 3.0 buffer, day 8
  Retention of Sweetness: 83.8%
  SEV: 5.93 % sucrose
[2]; pH 3.0 buffer, day 9
  Retention of Sweetness: 83.1%
  SEV: 5.88 % sucrose
[2]; pH 3.0 buffer, day 11
  Retention of Sweetness: 83.1%
  SEV: 5.88 % sucrose
[2]; pH 3.0 buffer, day 50
  Retention of Sweetness: 72.3%
  SEV: 5.12 % sucrose
[2]; pH 3.0 buffer, day 100
  Retention of Sweetness: 57.9%
  SEV: 4.10 % sucrose
[2]; pH 4.0, 40° C.
  Rate constant (k) of sweetness loss: 0.003 day⁻¹
  half-life: 230 days
[2]; pH 4.0 buffer, day 0
  SEV: 7.40 % sucrose
[2]; pH 4.0 buffer, day 3
  Retention of Sweetness: 95.7%
  SEV: 7.08 % sucrose
[2]; pH 4.0 buffer, day 8
  Retention of Sweetness: 86.8%
  SEV: 6.42 % sucrose
[2]; pH 4.0 buffer, day 11
  Retention of Sweetness: 85.9%
  SEV: 6.36 % sucrose
[2]; pH 4.0 buffer, day 17
  Retention of Sweetness: 82.4%
  SEV: 6.10 % sucrose
[2]; pH 4.0 buffer, day 24
  Retention of Sweetness: 84.5%
  SEV: 6.25 % sucrose
[2]; pH 4.0 buffer, day 50
  Retention of Sweetness: 82.9%
  SEV: 6.14 % sucrose
[2]; pH 4.0 buffer, day 100
  Retention of Sweetness: 78.4%
  SEV: 5.80 % sucrose
[3]; [4]
  Aftertaste: Some lingering
  Mouthfeel: Thinner than control.
[3]; [5]
  Aftertaste: Quite clean, slight
  Mouthfeel: Slightly less
  Sweetness Profile: Slight delay in onset -
[3]; cola, monatin 80 ppm
  Average Score: 2.9
[3]; lemon/lime carbonate, monatin 67 ppm
  Average Score: 4.0
